Measured values taken from PubChem BioAssay (NCI).
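Following 48 hours of exposure in 96-well plates, responses at five concentrations were used to interpolate endpoints linearly. TGI is the concentration that stops growth completely.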

Experiments:
Assay in all cases: NCI-60 cell line screen, 48 h
786-0 renal = system: 786-0 renal
HCT-116 colon = system: HCT-116 colon
RXF 393 renal = system: RXF 393 renal
SK-MEL-5 melanoma = system: SK-MEL-5 melanoma
HL-60(TB) leukemia = system: HL-60(TB) leukemia
NCI-H226 lung = system: NCI-H226 lung
K-562 leukemia = system: K-562 leukemia
HT29 colon = system: HT29 colon
CCRF-CEM leukemia = system: CCRF-CEM leukemia
IGROV1 ovarian = system: IGROV1 ovarian

SMILES	TGI (786-0 renal)	TGI (HCT-116 colon)	TGI (RXF 393 renal)	TGI (SK-MEL-5 melanoma)	TGI (HL-60(TB) leukemia)	TGI (NCI-H226 lung)	TGI (K-562 leukemia)	TGI (HT29 colon)	TGI (CCRF-CEM leukemia)	TGI (IGROV1 ovarian)
N#CC(CCN1CCC(Nc2ccccc2)(c2nnnn2C2CCCCC2)CC1)(c1ccccc1)c1ccccc1	> 100 µM	> 100 µM	> 100 µM	> 100 µM	> 100 µM	> 100 µM	> 100 µM	> 100 µM	> 100 µM	> 100 µM
CC(C)(C)OC(=O)[C@@H]1CCC(=O)N1C1(c2ccccc2)c2ccccc2-c2ccccc21	> 100 µM	> 100 µM	32.2 µM	51.9 µM	61.8 µM	> 100 µM	> 100 µM	90.1 µM	43.7 µM	> 100 µM
O=C(O)CCC(=O)OCN1C(=O)C2C3C=CC(C2C1=O)C1C2C(=O)N(COC(=O)CCC(=O)O)C(=O)C2C31 (stereo not given)	> 100 µM	> 54.3 µM	> 100 µM	> 100 µM	46.7 µM	> 100 µM	> 100 µM	> 100 µM	> 81.1 µM	> 100 µM
O=C(O)CSc1ccccc1C(=O)O	> 100 µM	> 100 µM	> 100 µM	> 100 µM	> 100 µM	> 100 µM	> 100 µM	> 100 µM	> 100 µM	> 100 µM
COC(=O)[C@H](Cc1c[nH]c2ccccc12)NP(=O)(OCCC#N)OCC1OC(n2cc(C)c(=O)[nH]c2=O)CC1N=[N+]=[N-] (stereo not given in full)	> 100 µM	> 100 µM	> 100 µM	> 100 µM	> 100 µM	> 100 µM	> 100 µM	> 100 µM	> 100 µM	> 100 µM
Cc1ccc(S(=O)(=O)NC(CCC(=O)NNc2ccccc2)C(=O)NNc2ccccc2)cc1 (stereo not given)	> 100 µM	> 100 µM	> 100 µM	> 100 µM	> 100 µM	> 100 µM	> 100 µM	> 100 µM	> 100 µM	> 100 µM
NNC(=O)Nc1nc2ccc(NN)cc2[nH]1	> 100 µM	> 100 µM	97.2 µM	51.9 µM	32.4 µM	89.8 µM	42.1 µM	> 100 µM	41.7 µM	> 100 µM
O=c1[nH]c(=O)n(C2CC(O)C(CO)O2)cc1Oc1ccccc1 (stereo not given)	> 100 µM	> 100 µM	> 100 µM	> 100 µM	> 100 µM	> 100 µM	> 100 µM	> 100 µM	> 100 µM	> 100 µM
Cc1c(C(=O)c2ccc(N)c3ccccc23)c2ccccc2n1CCN1CCOCC1	80.6 µM	48.6 µM	67.7 µM	33.7 µM	58.1 µM	> 100 µM	> 90.6 µM	72.5 µM	> 100 µM	> 89.6 µM
C1=NCCNCCNCCN=Cc2ccc(cc2)OCc2cccc(n2)COc2ccc1cc2	> 100 µM	> 100 µM	> 100 µM	> 100 µM	> 100 µM	> 100 µM	> 100 µM	> 100 µM	> 100 µM	> 100 µM
CC(C)(C)OC(=O)N/C(C=O)=C\C1CCCCC1	42.6 µM	36 µM	59.7 µM	31.3 µM	65.4 µM	55.1 µM	46.2 µM	71.6 µM	> 100 µM	46 µM
CSC(=S)Nc1cc(C)cc(C)n1	> 31.6 µM	> 10 µM	> 31.6 µM	> 100 µM	> 31.6 µM	> 31.6 µM	> 31.6 µM	> 31.6 µM	> 31.6 µM	> 100 µM
N#CC1(C#N)C(C#N)(C#N)C1(C#N)C(N)=O	> 100 µM	> 100 µM	> 100 µM	> 100 µM	> 100 µM	> 100 µM	> 100 µM	> 100 µM	> 100 µM	> 100 µM
Nc1ccc(-c2nc3ccccc3s2)cc1Cl	> 100 µM	> 100 µM	> 94.2 µM	> 100 µM	> 100 µM	> 100 µM	> 100 µM	> 100 µM	98.3 µM	> 100 µM
C[C@]12CC[C@H]3[C@@H](CCC4=CC(=O)C=C[C@@]43OC(=O)C(F)(F)F)[C@@H]1CCC2=O	> 83.5 µM	> 56 µM	> 100 µM	> 100 µM	> 100 µM	> 100 µM	> 100 µM	> 100 µM	> 100 µM	> 100 µM
Cc1ccc(S(=O)(=O)N2C[C@@H]3CC[C@]4(CO[Si](C)(C)C(C)(C)C)N[C@@H](c5ccccc5)[C@H]2[C@H]34)cc1	> 100 µM	> 100 µM	53.1 µM	30.6 µM	> 100 µM	57.1 µM	> 100 µM	42.6 µM	> 100 µM	> 100 µM
FC(F)(F)c1cc(N(C2c3ccccc3C=Cc3ccccc32)P(Cl)Cl)cc(C(F)(F)F)c1	35.5 µM	40.3 µM	27.1 µM	32.7 µM	81.6 µM	38.7 µM	42.7 µM	> 100 µM	82.3 µM	92.3 µM
CCN1C/C(=C\c2ccc(Cl)cc2)c2nc(N)c(C#N)c(-c3ccc(Cl)cc3)c2C1	> 100 µM	> 100 µM	> 100 µM	> 100 µM	> 100 µM	> 100 µM	> 100 µM	> 100 µM	> 100 µM	> 100 µM
